Test results from ChEMBL document CHEMBL1201862, “PubChem BioAssay data set” (2004).
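A five-concentration, 48-hour dose response in 96-well plates underlies each endpoint, interpolated linearly between surrounding concentrations. GI50 marks 50% less growth.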 Activity calls are given as the source filed them. No stated cut-off is given here; in the data, active = GI50 up to about 1.1 µM and inactive = higher.

Tests used:
Assay in all cases: growth of human tumour cells (NCI), 48 h
CAKI-1 = test system: CAKI-1
RPMI-8226 = test system: RPMI-8226
NCI-H460 = test system: NCI-H460
OVCAR-5 = test system: OVCAR-5
MCF7 = test system: MCF7
KM12 = test system: KM12
PC-3 = test system: PC-3
SF-295 = test system: SF-295
COLO 205 = test system: COLO 205
SF-539 = test system: SF-539
OVCAR-4 = test system: OVCAR-4
UACC-257 = test system: UACC-257
A498 = test system: A498
UO-31 = test system: UO-31
HCT-15 = test system: HCT-15
SR = test system: SR
MOLT-4 = test system: MOLT-4
EKVX = test system: EKVX
IGROV-1 = test system: IGROV-1
UACC-62 = test system: UACC-62

Structure (SMILES)	GI50 (CAKI-1)	GI50 (RPMI-8226)	GI50 (NCI-H460)	GI50 (OVCAR-5)	GI50 (MCF7)	GI50 (KM12)	GI50 (PC-3)	GI50 (SF-295)	GI50 (COLO 205)	GI50 (SF-539)	GI50 (OVCAR-4)	GI50 (UACC-257)	GI50 (A498)	GI50 (UO-31)	GI50 (HCT-15)	GI50 (SR)	GI50 (MOLT-4)	GI50 (EKVX)	GI50 (IGROV-1)	GI50 (UACC-62)
COc1nc(C#CC2(O)CCCCC2)nc(OC)n1	4.19 µM (inactive)	2.88 µM (inactive)	24.3 µM (inactive)	12.7 µM (inactive)	4.28 µM (inactive)	15.8 µM (inactive)	5.62 µM (inactive)	18 µM (inactive)	14.7 µM (inactive)	9.16 µM (inactive)	1.87 µM (inactive)	14.6 µM (inactive)	17.3 µM (inactive)	3.82 µM (inactive)	2.69 µM	3.47 µM (inactive)	3.53 µM (inactive)	18.1 µM (inactive)	11.1 µM (inactive)	6.55 µM (inactive)
O=C1Nc2ccc([N+](=O)[O-])cc2/C1=N/NC(=S)Nc1ccccc1	3.53 µM (inactive)	15.5 µM (inactive)	3.61 µM (inactive)	12.2 µM (inactive)	4.41 µM (inactive)	8.41 µM (inactive)	5.5 µM (inactive)	4.34 µM (inactive)	11.7 µM (inactive)	12 µM (inactive)	7.23 µM (inactive)	12.7 µM (inactive)	3.56 µM (inactive)	4.79 µM (inactive)	3.03 µM	5.26 µM (inactive)	5.98 µM (inactive)	1.21 µM (inactive)	1.41 µM (inactive)	11 µM (inactive)
COC(=O)c1c(C#C[Si](C)(C)C)c(C#C[Si](C)(C)C)c(C#C[Si](C)(C)C)c(C#C[Si](C)(C)C)c1C(=O)OC	> 100 µM (inactive)	> 100 µM (inactive)	> 100 µM (inactive)	> 100 µM (inactive)	> 100 µM (inactive)	> 100 µM (inactive)	> 100 µM (inactive)	> 100 µM (inactive)	> 100 µM (inactive)	> 100 µM (inactive)	> 100 µM (inactive)	> 100 µM (inactive)	> 100 µM (inactive)	> 100 µM (inactive)	> 100 µM	> 100 µM (inactive)	> 100 µM (inactive)	> 100 µM (inactive)	> 100 µM (inactive)	> 100 µM (inactive)
COc1cc(S(=O)(=O)Nc2ccc(-c3csc(N4C(=O)C(Cl)C4c4cccs4)n3)cc2)ccc1Cl (stereo unspecified)	> 100 µM (inactive)	26.9 µM (inactive)	71.6 µM (inactive)	> 100 µM (inactive)	29.5 µM (inactive)	49.2 µM (inactive)	> 100 µM (inactive)	> 100 µM (inactive)	31.7 µM (inactive)	32.8 µM (inactive)	21.6 µM (inactive)	28.1 µM (inactive)	> 100 µM (inactive)	84.3 µM (inactive)	> 100 µM	5.32 µM (inactive)	11.4 µM (inactive)	7.55 µM (inactive)	18.2 µM (inactive)	22.2 µM (inactive)
CC(CO)CCNc1ncnc2c1ncn2CCC(=O)OC(C)(C)C (stereo unspecified)	> 100 µM (inactive)	> 100 µM (inactive)	> 100 µM (inactive)	> 100 µM (inactive)	> 100 µM (inactive)	> 100 µM (inactive)	> 100 µM (inactive)	> 100 µM (inactive)	> 100 µM (inactive)	> 100 µM (inactive)	> 100 µM (inactive)	> 100 µM (inactive)	> 100 µM (inactive)	> 100 µM (inactive)	–	> 100 µM (inactive)	> 100 µM (inactive)	> 100 µM (inactive)	> 100 µM (inactive)	> 100 µM (inactive)
Cc1nc2c(nc1C)-c1c(c3c(n1Cc1ccccc1)C(=O)CCC3)C(=O)C2=O	2.15 µM (inactive)	1.84 µM (inactive)	4.62 µM (inactive)	3.74 µM (inactive)	2.29 µM (inactive)	2.09 µM (inactive)	5.27 µM (inactive)	13.7 µM (inactive)	30.5 µM (inactive)	2.33 µM (inactive)	1.81 µM (inactive)	6.37 µM (inactive)	18.8 µM (inactive)	2.08 µM (inactive)	3.15 µM	2.1 µM (inactive)	2.9 µM (inactive)	5.69 µM (inactive)	2.58 µM (inactive)	14.5 µM (inactive)
Cc1ccc2nc3c(C)c(Cl)c(=O)cc-3sc2c1	28.2 µM (inactive)	3.85 µM (inactive)	23.1 µM (inactive)	34.3 µM (inactive)	17.6 µM (inactive)	23.1 µM (inactive)	8.93 µM (inactive)	23.3 µM (inactive)	29.9 µM (inactive)	13.1 µM (inactive)	18 µM (inactive)	16.6 µM (inactive)	40.2 µM (inactive)	10.2 µM (inactive)	10.6 µM	5.86 µM (inactive)	4.98 µM (inactive)	38.8 µM (inactive)	37.9 µM (inactive)	8.57 µM (inactive)
O=C1CCCCC1C(O)(C(F)(F)F)C(F)(F)Cl (stereo unspecified)	> 10 µM (inactive)	> 10 µM (inactive)	> 10 µM (inactive)	> 10 µM (inactive)	> 10 µM (inactive)	> 10 µM (inactive)	> 10 µM (inactive)	> 10 µM (inactive)	> 10 µM (inactive)	> 10 µM (inactive)	> 10 µM (inactive)	> 10 µM (inactive)	> 10 µM (inactive)	–	> 10 µM	> 10 µM (inactive)	> 10 µM (inactive)	> 10 µM (inactive)	> 10 µM (inactive)	> 10 µM (inactive)
NC(=O)NNc1nc2ccccc2c(=O)n1NC(=O)C(=O)Nc1ccc(Cl)cc1Cl	> 100 µM (inactive)	> 100 µM (inactive)	> 100 µM (inactive)	> 100 µM (inactive)	> 100 µM (inactive)	> 100 µM (inactive)	> 100 µM (inactive)	> 100 µM (inactive)	–	> 100 µM (inactive)	> 100 µM (inactive)	> 100 µM (inactive)	> 100 µM (inactive)	> 100 µM (inactive)	> 100 µM	65.2 µM (inactive)	> 100 µM (inactive)	66.8 µM (inactive)	64 µM (inactive)	> 100 µM (inactive)
CCOC(=O)Cn1c(=O)c2nc(SC)sc2n(-c2ccc(C)cc2)c1=S	> 100 µM (inactive)	> 100 µM (inactive)	48 µM (inactive)	> 100 µM (inactive)	> 100 µM (inactive)	–	38.1 µM (inactive)	> 71.6 µM (inactive)	> 100 µM (inactive)	36.1 µM (inactive)	10.2 µM (inactive)	> 100 µM (inactive)	46.8 µM (inactive)	48.6 µM (inactive)	> 100 µM	> 100 µM (inactive)	> 100 µM (inactive)	74.3 µM (inactive)	55.3 µM (inactive)	43.8 µM (inactive)
